Patent US6432416B1, “Anti-microbial power coating” (Dupont Powder Coatings USA, Inc., priority 1997, dated 2002)

Key:
[1] = system: Pseudomonas aeruginosa, Staphylococcus aureus, and Escherichia coli; assay: Shorter-term bacterial test per ASTM D 5588-94; type: cell-based; settings: after 72 hours of incubation; 0.1 percent and 1 percent formulations
Procedure: Steel coupons were coated with the Fungitrol® 11, Butyl Parabens®, and Amerstat® 300 anti-microbial formulations, at 0.1 percent and 1 percent, and exposed as per ASTM D 5588-94 to a mixture containing the bacteria Pseudomonas aeruginosa, Staphylococcus aureus, and Escherichia coli. After the coupons were washed with a 70 percent ethanol/water solution, they were placed in a sterile Petri dish, inoculated, and incubated at 32° C. for the duration of the test.
At appropriate intervals, each sample was checked for the presence of viable microorganisms by streaking each sample with a sterile cotton swab, then streaking the swab onto Tryptic Soy Agar. The plates were incubated for 48 hours at 32° C. […] The presence of microbial growth would indicate non-sterility, i.e., the sample contained viable microbial contamination.
The samples were examined for low levels of bacterial contamination by transferring an aliquot with a sterile cotton swab to a Tryptic Soy Broth in culture tubes. The tubes were incubated for 24 hours at 32° C., streaked onto Tryptic Soy Agar plates and the plates were incubated for 24 to 48 hours at 32° C.

[2] = system: Aspergillus niger (ATCC 6275), Penicillium funiculosum (ATCC 11797), and Aureobasidium pullulans (ATCC 9348); assay: Resistance to fungal growth, ASTM D5590-95, mixed spore suspension; settings: concentration of 1 percent; four weeks of exposure to fungus spores
Procedure: Resistance to fungal growth was tested generally in accordance with ASTM D5590-95. […] Samples were aseptically placed onto a modified malt agar plate and then each sample was inoculated.
The same samples were also exposed to fungus spores for a period of four weeks.

[3] = system: Pseudomonas aeruginosa, Escherichia coli, and Salmonella typhinurium; assay: Long-term anti-microbial activity test of cured powder coatings (bacterial coverage rating); settings: cured epoxy powder coating; for AVERAGE BACTERIAL COVERAGE: growth rating 0 (good) to 4 (poor), averaged over the different samples (0.1 and 1 percent additive, different thickness), after four weeks; for bacterial coverage / activity relative to the control: long-term test
Procedure: A long-term anti-microbial activity test was carried out to determine if selected anti-microbial agents maintain their anti-microbial activity after being incorporated into powder coatings and cured.
Six anti-microbial agents were selected for experimentation. […] For each powder coating formulation, one of the six anti-microbial agents was added at concentrations of 0.1 percent and 1 percent of the total resin weight.
Samples containing one of the six additives at the two concentrations in the coating matrix were prepared. […] Controls containing the coating formulation with no additive and controls containing only the black silicone resin used for edge coverage were included.
The target bacterial organisms were Pseudomonas aeruginosa, Escherichia coli, and Salmonella typhinurium. Five groups of samples were prepared. […] Each of the following samples was prepared with an additive concentration of 1 percent of the resin by weight.
The results were then rated on a scale of “0” (good performance) to “4” (poor performance) based on the number of colony-forming units observed. The growth ratings, which were averaged over the different samples, are based on the following numerical rating system:
0=No contamination (sterile).
1=Trace of contamination (1-9 colonies per “streak-inch”).
2=Light contamination (10-99 colonies per “streak-inch”).
3=Moderate contamination (greater than 100 colonies, but still distinguishable).
4=Heavy contamination (continuous smear of growth).

[4] = system: fungus spores of Aspergillus niger, Penicillium funiculosum, and Aerobasidium pullulans; assay: Shorter-term fungal test per ASTM D 5588-94; type: cell-based; settings: after 72 hours of incubation
Procedure: Next, steel coupons were coated with the anti-microbial formulations listed above and exposed per ASTM D 5588-94 to a mixture containing the fungus spores of Aspergillus niger, Penicillium funiculosum, and Aerobasidium pullulans. After the coupons were washed with a 70 percent ethanol/water solution, they were placed in a sterile Petri dish, inoculated, and incubated at 28° C. for the duration of the test. At appropriate intervals, each sample was checked for the presence of viable microorganisms by streaking each sample with a sterile cotton swab, then streaking the swab onto Potato Dextrose Agar (adjusted to pH 3.5 for fungi). These plates were also incubated at 28° C. […] The presence of microbial growth would indicate non-sterility, i.e., the sample contained viable microbial contamination.

[5] = system: Staphylococcus aureus, Escherichia coli, and Salmonella choleraesuis; assay: AATCC Test Method 147 at higher anti-microbial concentration (zones of inhibition)
[6] = 5 percent agent in powder coating

SMILES | fungal growth on coating surface [2] | AVERAGE BACTERIAL COVERAGE [3] | bacterial coverage / activity relative to the control [3] | other results
N#CC(Br)(Br)C(N)=O [Amerstat® 300, dibromocyanoacetamide] | a very small amount of fungal growth | 1.6 ± 1.5 | significantly improved bacterial coverage | bacterial growth on coated samples [1]: did not show conclusive results
CCCCOC(=O)c1ccc(O)cc1 [Butyl Parabens®, butyl-p-hydroxy-benzoate] | free of visible fungal growth | 2.6 ± 1.3 | – | bacterial growth on coated samples [1]: free of bacterial growth and were actually sterile; growth on coated samples exposed to fungus spores [4]: free of (or showed very low levels of) bacterial growth
O=[N+]([O-])C(Br)(CO)CO [Canguard® 409, 2-bromo-2-nitropropane-1,3-diol] | – | – | – | zones of inhibition [5, 6]: Significant zones of inhibition; inhibiting the growth of Escherichia coli and Salmonella choleraesuis, compared with the triclosan formulation [5]: performed better than the triclosan formulation
Oc1cc(Cl)ccc1Oc1ccc(Cl)cc1Cl [Irgasan® DP 400, 5-chloro-2-(2,4-dichloro-phenoxy)phenol] | – | – | – | zones of inhibition ([5]; 3 percent agent in powder coating): Significant zones of inhibition
N#Cc1c(Cl)c(Cl)c(Cl)c(C#N)c1Cl [Nuocide® 960, tetrachloroisophthalonitrile] | free of visible fungal growth | 3.0 ± 1.3 | – | –
CN1CSC(=S)N(C)C1 [Nuosept® S, 3,5-dimethyltetrahydro-1,3,5-2H-thiazine-2-thione] | did not show conclusive fungal resistance | 3.6 ± 0.5 | did not appear to improve the activity relative to the control | zones of inhibition [5, 6]: Significant zones of inhibition; zones of inhibition ([5]; 10 percent agent in powder coating): Significant zones of inhibition; inhibiting the growth of Escherichia coli and Salmonella choleraesuis, compared with the triclosan formulation [5]: performed as well as or better than the triclosan formulation
CCCOC(=O)c1ccc(O)cc1 [Propyl Parabens®] | free of visible fungal growth | 3.7 ± 0.5 | did not appear to improve the activity relative to the control | –
